Experimental data published in ChEMBL document CHEMBL1201862, “PubChem BioAssay data set” (2004).
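Compound exposure: 48 hours, 5 concentrations, 96-well plates. Here, GI50 denotes the concentration required for 50% inhibition of growth.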 The source made the active and inactive calls. Rule as the data show it: active = GI50 up to about 1.1 µM and inactive = higher.

Tests used:
Assay in all cases: NCI-60 cell line screen, 48 h
CAKI-1 = tested on: CAKI-1
SK-OV-3 = tested on: SK-OV-3
IGROV-1 = tested on: IGROV-1
SF-539 = tested on: SF-539
DU-145 = tested on: DU-145
M14 = tested on: M14
UACC-257 = tested on: UACC-257
EKVX = tested on: EKVX
Hs-578T = tested on: Hs-578T
HT-29 = tested on: HT-29
KM12 = tested on: KM12
SK-MEL-5 = tested on: SK-MEL-5
SF-268 = tested on: SF-268
NCI-H226 = tested on: NCI-H226
TK-10 = tested on: TK-10
SK-MEL-2 = tested on: SK-MEL-2
MOLT-4 = tested on: MOLT-4
RXF 393 = tested on: RXF 393
HL-60 = tested on: HL-60
A498 = tested on: A498

Row | SMILES | GI50 (CAKI-1) | GI50 (SK-OV-3) | GI50 (IGROV-1) | GI50 (SF-539) | GI50 (DU-145) | GI50 (M14) | GI50 (UACC-257) | GI50 (EKVX) | GI50 (Hs-578T) | GI50 (HT-29) | GI50 (KM12) | GI50 (SK-MEL-5) | GI50 (SF-268) | GI50 (NCI-H226) | GI50 (TK-10) | GI50 (SK-MEL-2) | GI50 (MOLT-4) | GI50 (RXF 393) | GI50 (HL-60) | GI50 (A498)
1 | Oc1ccccc1/C=N/N1C(=S)N(C23CC4CC(CC(C4)C2)C3)C(=N\c2ccccc2)/C1=N/c1ccccc1 | > 100 µM (inactive) | > 100 µM (inactive) | > 100 µM (inactive) | > 100 µM (inactive) | > 100 µM (inactive) | > 100 µM (inactive) | > 100 µM (inactive) | > 100 µM (inactive) | > 100 µM (inactive) | 29.6 µM (inactive) | > 100 µM (inactive) | 23.4 µM (inactive) | > 100 µM (inactive) | > 100 µM (inactive) | > 100 µM (inactive) | > 100 µM (inactive) | 3.92 µM (inactive) | 82.8 µM (inactive) | – | –
2 | N#CC1C(=O)NC(=O)C(C#N)C1c1ccc(Cl)c(Cl)c1 (centres undefined) | 22.4 µM (inactive) | > 100 µM (inactive) | 18.1 µM (inactive) | 19.4 µM (inactive) | 37.5 µM (inactive) | 23.4 µM (inactive) | 35.9 µM (inactive) | > 100 µM (inactive) | 23.1 µM (inactive) | 16.7 µM (inactive) | 33.7 µM (inactive) | 20.9 µM (inactive) | 34.8 µM (inactive) | – | 35.3 µM (inactive) | 80.2 µM (inactive) | 26.9 µM (inactive) | 21 µM (inactive) | 35.4 µM (inactive) | –
3 | c1ccc(-c2c(-c3[nH]c4ccccc4c3-c3ccccc3)[nH]c3ccccc23)cc1 | 3.33 µM (inactive) | 8.15 µM (inactive) | 4.75 µM (inactive) | 7.96 µM (inactive) | 3.38 µM (inactive) | 3.54 µM (inactive) | 12.3 µM (inactive) | 3.89 µM (inactive) | 9.38 µM (inactive) | 3.45 µM (inactive) | 3.03 µM (inactive) | 4.16 µM (inactive) | 6.47 µM (inactive) | 11.6 µM (inactive) | 10.6 µM (inactive) | 8.45 µM (inactive) | 3.35 µM (inactive) | 1.82 µM (inactive) | 3.06 µM (inactive) | –
4 | CC(=O)C1(O)Cc2c(O)c3c(c(O)c2C(OC2CC(N)C(O)C(C)O2)C1)C(=O)c1ccccc1C3=O (centres undefined) | 0.00836 µM (active) | 0.161 µM (active) | 0.0243 µM (active) | 0.0163 µM (active) | 0.0221 µM (active) | 0.0452 µM (active) | 0.121 µM (active) | 0.193 µM (active) | 0.254 µM (active) | 0.0252 µM (active) | 0.0498 µM (active) | 0.0241 µM (active) | 0.0215 µM (active) | 0.0163 µM (active) | 0.053 µM (active) | 0.415 µM (active) | 0.01 µM (active) | – | 0.00206 µM (active) | 0.0115 µM (active)
5 | O=C1CCC2(c3ccc(Cl)cc3)Nc3ncncc3N12 (centres undefined) | – | > 10 µM (inactive) | > 10 µM (inactive) | > 10 µM (inactive) | > 10 µM (inactive) | > 10 µM (inactive) | > 10 µM (inactive) | > 10 µM (inactive) | > 10 µM (inactive) | > 10 µM (inactive) | > 10 µM (inactive) | – | > 10 µM (inactive) | > 10 µM (inactive) | > 10 µM (inactive) | > 10 µM (inactive) | > 10 µM (inactive) | – | – | –
6 | NNC(=S)NCCNC(=S)NN | > 100 µM (inactive) | > 100 µM (inactive) | > 100 µM (inactive) | – | > 100 µM (inactive) | > 100 µM (inactive) | > 100 µM (inactive) | > 100 µM (inactive) | > 100 µM (inactive) | > 100 µM (inactive) | > 100 µM (inactive) | > 100 µM (inactive) | > 100 µM (inactive) | – | – | > 100 µM (inactive) | > 100 µM (inactive) | – | > 100 µM (inactive) | –
7 | Cc1cccc2nc3c(=O)[nH]c(=O)nc-3n(C)c12 | > 100 µM (inactive) | > 100 µM (inactive) | > 100 µM (inactive) | 41.1 µM (inactive) | > 100 µM (inactive) | 37.8 µM (inactive) | 34.4 µM (inactive) | > 100 µM (inactive) | 86.9 µM (inactive) | 33.2 µM (inactive) | 31.9 µM (inactive) | 29.6 µM (inactive) | 50.4 µM (inactive) | > 100 µM (inactive) | > 100 µM (inactive) | 48.8 µM (inactive) | 43 µM (inactive) | > 100 µM (inactive) | 15.7 µM (inactive) | –
8 | CCn1c2ccccc2c2cc(/N=N\c3ccc(C#N)cc3)ccc21 | 20.4 µM (inactive) | 40.8 µM (inactive) | 32.5 µM (inactive) | 32.8 µM (inactive) | 62.7 µM (inactive) | 25.9 µM (inactive) | 58.9 µM (inactive) | 33.3 µM (inactive) | 42.1 µM (inactive) | 26.5 µM (inactive) | 83.6 µM (inactive) | 50.7 µM (inactive) | 54.7 µM (inactive) | 56.8 µM (inactive) | 32.1 µM (inactive) | > 100 µM (inactive) | > 100 µM (inactive) | – | 32.1 µM (inactive) | 25.8 µM (inactive)
9 | CC(C)OP(=O)(c1ccccc1)c1ccc2c(c1)OCCOCCOCCOCCO2 (centres undefined) | – | > 100 µM (inactive) | > 100 µM (inactive) | > 100 µM (inactive) | > 100 µM (inactive) | – | > 100 µM (inactive) | > 100 µM (inactive) | > 100 µM (inactive) | > 100 µM (inactive) | > 100 µM (inactive) | > 100 µM (inactive) | > 100 µM (inactive) | > 100 µM (inactive) | > 100 µM (inactive) | – | > 100 µM (inactive) | – | > 100 µM (inactive) | > 100 µM (inactive)
10 | O=C(O)c1ccccc1CC1Cc2ccc3c(c2C1=O)CCC3 (centres undefined) | > 100 µM (inactive) | > 100 µM (inactive) | > 100 µM (inactive) | > 100 µM (inactive) | > 100 µM (inactive) | 61.8 µM (inactive) | > 100 µM (inactive) | > 100 µM (inactive) | > 100 µM (inactive) | > 100 µM (inactive) | > 100 µM (inactive) | > 100 µM (inactive) | > 100 µM (inactive) | > 100 µM (inactive) | > 100 µM (inactive) | > 100 µM (inactive) | > 100 µM (inactive) | > 100 µM (inactive) | > 100 µM (inactive) | –
11 | O=C1/C(=C/c2ccc(Cl)cc2)Oc2cc(O)ccc21 [6-HYDROXY-4'-CHLORO AURONE] | > 10 µM (inactive) | 30.6 µM (inactive) | 33.4 µM (inactive) | 21.9 µM (inactive) | 41.4 µM (inactive) | 50.6 µM (inactive) | 31.2 µM (inactive) | 29.2 µM (inactive) | 14.7 µM (inactive) | – | 38.5 µM (inactive) | 23.4 µM (inactive) | 52.8 µM (inactive) | 28.2 µM (inactive) | 30.5 µM (inactive) | – | 19.6 µM (inactive) | 39.4 µM (inactive) | 18.1 µM (inactive) | –
